Assay results: article PMC8398451, “Molecular Engineering of Curcumin, an Active Constituent of Curcuma longa L. (Turmeric) of the Family Zingiberaceae with Improved Antiproliferative Activity” (Plants, 2021)
Where two headings read alike, the source gives them in different places.

Assays:
K-562 = experiment: NCI antiproliferative SRB assay, Leukemia panel; type: cell-based, Human; details: for %GI / GP (growth percent): one dose 10 µM
RPMI-8226 = experiment: NCI antiproliferative SRB assay, Leukemia panel; type: cell-based, Human; details: for %GI / GP (growth percent): one dose 10 µM
SR = experiment: NCI antiproliferative SRB assay, Leukemia panel; type: cell-based, Human
EKVX = experiment: NCI antiproliferative SRB assay, Non-Small Cell Lung Cancer panel; type: cell-based, Human; details: for %GI / GP (growth percent): one dose 10 µM
HOP-62 = experiment: as above; type: cell-based, Human; details: for %GI / GP (growth percent): one dose 10 µM
HOP-92 = experiment: as above; type: cell-based
NCI-H226 = experiment: as above; type: cell-based, Human; details: for %GI / GP (growth percent): one dose 10 µM
NCI-H23 = experiment: as above; type: cell-based, Human; details: for %GI / GP (growth percent): one dose 10 µM
NCI-H322M = experiment: as above; type: cell-based, Human; details: for %GI / GP (growth percent): one dose 10 µM
SW-620 = experiment: NCI antiproliferative SRB assay, Colon Cancer panel; type: cell-based, Human; details: for %GI / GP (growth percent): one dose 10 µM
SF-295 = experiment: NCI antiproliferative SRB assay, CNS Cancer panel; type: cell-based, Human; details: for %GI / GP (growth percent): one dose 10 µM
SF-539 = experiment: NCI antiproliferative SRB assay, CNS Cancer panel; type: cell-based, Human; details: for %GI / GP (growth percent): one dose 10 µM
M14 = experiment: NCI antiproliferative SRB assay, Melanoma panel; type: cell-based, Human; details: for %GI / GP (growth percent): one dose 10 µM
MDA-MB-435 = experiment: NCI antiproliferative SRB assay, Melanoma panel; type: cell-based; details: for %GI / GP (growth percent): one dose 10 µM
OVCAR-5 = experiment: NCI antiproliferative SRB assay, Ovarian Cancer panel; type: cell-based, Human; details: for %GI / GP (growth percent): one dose 10 µM
OVCAR-8 = experiment: as above; type: cell-based, Human; details: for %GI / GP (growth percent): one dose 10 µM
786–0 = experiment: NCI antiproliferative SRB assay, Renal Cancer panel; type: cell-based, Human; details: for %GI / GP (growth percent): one dose 10 µM
CAKI-1 = experiment: as above; type: cell-based, Human; details: for %GI / GP (growth percent): one dose 10 µM
RXF 393 = experiment: as above; type: cell-based, Human; details: for %GI / GP (growth percent): one dose 10 µM
PC-3 = experiment: NCI antiproliferative SRB assay, Prostate Cancer panel; type: cell-based, Human; details: for %GI / GP (growth percent): one dose 10 µM
Leukemia cell line panel = experiment: NCI antiproliferative assay, panel summary; type: cell-based, Human; details: for Mean % GI: 10 µM; for GI50: Homo sapiens
[1] = system: Colon Cancer cell line panel; experiment: NCI antiproliferative assay, panel summary; type: cell-based, Human; details: for Mean % GI: 10 µM
[2] = system: CNS Cancer cell line panel; experiment: NCI antiproliferative assay, panel summary; type: cell-based, Human; details: for Mean % GI: 10 µM
Melanoma cell line panel = experiment: NCI antiproliferative assay, panel summary; type: cell-based, Human; details: for Mean % GI: 10 µM
[3] = system: Ovarian Cancer cell line panel; experiment: NCI antiproliferative assay, panel summary; type: cell-based, Human; details: for Mean % GI: 10 µM
EGFR = target: T1, EGFR (Homo sapiens, UniProt P00533); experiment: Spectrophotometric assay for EGFR tyrosine kinase inhibition in A431 cells; type: cell-based; details: absorbance at 540 nm
T1 construct: tested for anti-EGFR activity in human A431 cells, which express high levels of EGFR protein; endogenous in cells; host or cells: human A431 cells

[4] = Homo sapiens, 5-dose 0.01-100 µM
[5] = Homo sapiens, 5-dose 0.01-100 µM, read-out: LC50 (the source's name)
[6] = Homo sapiens, 5-dose assay, read-out: Sub Panel MID b (mean GI50 of panel)

T1 sequence (P00533 25-1210): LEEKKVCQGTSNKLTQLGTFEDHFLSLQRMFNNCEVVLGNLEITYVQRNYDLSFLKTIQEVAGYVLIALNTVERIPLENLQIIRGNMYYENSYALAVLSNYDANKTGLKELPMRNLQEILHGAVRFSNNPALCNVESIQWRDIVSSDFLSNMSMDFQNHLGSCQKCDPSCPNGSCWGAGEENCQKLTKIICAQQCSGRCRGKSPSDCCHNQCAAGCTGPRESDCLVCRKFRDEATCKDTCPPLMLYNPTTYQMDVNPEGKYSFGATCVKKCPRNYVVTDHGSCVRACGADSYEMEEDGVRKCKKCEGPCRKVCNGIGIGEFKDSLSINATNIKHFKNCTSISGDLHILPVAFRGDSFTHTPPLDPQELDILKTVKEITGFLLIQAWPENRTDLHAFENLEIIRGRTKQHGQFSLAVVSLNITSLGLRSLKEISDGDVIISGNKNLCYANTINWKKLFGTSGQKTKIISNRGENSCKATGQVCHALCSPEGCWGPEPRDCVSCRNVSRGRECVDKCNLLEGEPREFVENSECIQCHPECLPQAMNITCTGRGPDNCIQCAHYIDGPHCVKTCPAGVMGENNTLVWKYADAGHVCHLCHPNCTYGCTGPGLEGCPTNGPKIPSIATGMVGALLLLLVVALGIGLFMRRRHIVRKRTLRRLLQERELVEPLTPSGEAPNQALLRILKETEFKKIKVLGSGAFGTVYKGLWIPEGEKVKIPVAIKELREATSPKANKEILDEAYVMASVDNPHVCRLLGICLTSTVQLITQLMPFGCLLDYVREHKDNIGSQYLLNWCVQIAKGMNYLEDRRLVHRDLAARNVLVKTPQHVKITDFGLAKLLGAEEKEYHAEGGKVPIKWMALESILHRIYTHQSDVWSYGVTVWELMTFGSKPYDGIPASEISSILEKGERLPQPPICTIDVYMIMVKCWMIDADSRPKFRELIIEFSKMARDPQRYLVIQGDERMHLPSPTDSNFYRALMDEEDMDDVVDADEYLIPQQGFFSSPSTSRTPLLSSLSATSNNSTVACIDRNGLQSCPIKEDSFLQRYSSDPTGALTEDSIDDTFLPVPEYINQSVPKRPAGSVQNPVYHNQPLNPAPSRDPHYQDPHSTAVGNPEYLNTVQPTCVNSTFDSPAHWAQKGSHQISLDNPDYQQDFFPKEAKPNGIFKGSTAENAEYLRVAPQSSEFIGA

## COc1ccc(NC(=O)n2nc(/C=C/c3ccc(O)c(OC)c3)cc2/C=C/c2ccc(O)c(OC)c2)cc1 [3b]
K-562; 5-dose 0.01-100 µM
  TGI: 16.9 µM
K-562; Homo sapiens, K562, 5-dose 0.01-100 µM
  GI50: 2.87 µM
K-562; Homo sapiens, K562, 5-dose 0.01-100 µM, read-out: LC50 (the source's name)
  CC50: > 100 µM
K-562
  %GI: 90.75%
  GP (growth percent): 9.25
RPMI-8226; 5-dose 0.01-100 µM
  TGI: 29.2 µM
RPMI-8226; [4]
  GI50: 3.38 µM
RPMI-8226; [5]
  CC50: > 100 µM
RPMI-8226
  %GI: 78.70%
  GP (growth percent): 21.30
SR; 5-dose 0.01-100 µM
  TGI: 12.8 µM
SR; [4]
  GI50: 1.52 µM
SR; [5]
  CC50: > 100 µM
EKVX; 5-dose 0.01-100 µM
  TGI: 83.7 µM
EKVX; [4]
  GI50: 6.62 µM
EKVX; [5]
  CC50: > 100 µM
EKVX
  %GI: 47.61%
  GP (growth percent): 52.39
HOP-62; 5-dose 0.01-100 µM
  TGI: 42.8 µM
HOP-62; [4]
  GI50: 3.65 µM
HOP-62; [5]
  CC50: > 100 µM
HOP-62
  %GI: 67.25%
  GP (growth percent): 32.75
HOP-92; 5-dose 0.01-100 µM
  TGI: >100 µM
HOP-92; Homo sapiens, 5-dose 0.01-100 µM, read-out: GI50
  GI50: 7.77 µM
HOP-92; [5]
  CC50: > 100 µM
HOP-92; one dose 10 µM
  %GI: 10.93%
  GP (growth percent): 89.07
NCI-H226; 5-dose 0.01-100 µM
  TGI: 78.6 µM
NCI-H226; [4]
  GI50: 10.7 µM
NCI-H226; [5]
  CC50: > 100 µM
NCI-H226
  %GI: 12.85%
  GP (growth percent): 87.15
NCI-H23; 5-dose 0.01-100 µM
  TGI: 63.8 µM
NCI-H23; [4]
  GI50: 3.81 µM
NCI-H23; [5]
  CC50: > 100 µM
NCI-H23
  %GI: 56.06%
  GP (growth percent): 43.94
NCI-H322M; 5-dose 0.01-100 µM
  TGI: 72.5 µM
NCI-H322M; [4]
  GI50: 3.87 µM
NCI-H322M; [5]
  CC50: > 100 µM
NCI-H322M
  %GI: 41.86%
  GP (growth percent): 58.14
SW-620; 5-dose 0.01-100 µM
  TGI: 61.6 µM
SW-620; [4]
  GI50: 5.51 µM
SW-620; [5]
  CC50: > 100 µM
SW-620
  %GI: 72.90%
  GP (growth percent): 27.10
SF-295; 5-dose 0.01-100 µM
  TGI: 53.2 µM
SF-295; [4]
  GI50: 6.25 µM
SF-295; [5]
  CC50: > 100 µM
SF-295
  %GI: 48.38%
  GP (growth percent): 51.62
SF-539; 5-dose 0.01-100 µM
  TGI: 13.6 µM
SF-539; [4]
  GI50: 2.35 µM
SF-539; [5]
  CC50: > 100 µM
SF-539
  %GI: 93.28%
  GP (growth percent): 6.72
M14; 5-dose 0.01-100 µM
  TGI: 41.5 µM
M14; [4]
  GI50: 3.15 µM
M14; [5]
  CC50: > 100 µM
M14
  %GI: 95.03%
  GP (growth percent): 4.97
MDA-MB-435; 5-dose 0.01-100 µM
  TGI: 4.68 µM
MDA-MB-435; Homo sapiens
  GI50: 1.25 µM
MDA-MB-435; [5]
  CC50: > 100 µM
MDA-MB-435
  %GI: 136.25%
  GP (growth percent): −36.25
OVCAR-5; 5-dose 0.01-100 µM
  TGI: 54.1 µM
OVCAR-5; [4]
  GI50: 18.8 µM
OVCAR-5; [5]
  CC50: > 100 µM
OVCAR-5
  %GI: 37.70%
  GP (growth percent): 62.30
OVCAR-8; 5-dose 0.01-100 µM
  TGI: 59.9 µM
OVCAR-8; [4]
  GI50: 5.32 µM
OVCAR-8; [5]
  CC50: > 100 µM
OVCAR-8
  %GI: 67.21%
  GP (growth percent): 32.79
786–0; 5-dose 0.01-100 µM
  TGI: 24.3 µM
786–0; [4]
  GI50: 4 µM
786–0; [5]
  CC50: > 100 µM
786–0
  %GI: 67.92%
  GP (growth percent): 32.08
CAKI-1; 5-dose 0.01-100 µM
  TGI: >100 µM
CAKI-1; [4]
  GI50: 3.6 µM
CAKI-1; [5]
  CC50: > 100 µM
CAKI-1
  %GI: 61.94%
  GP (growth percent): 38.06
RXF 393; 5-dose 0.01-100 µM
  TGI: 8.87 µM
RXF 393; [4]
  GI50: 3.02 µM
RXF 393; [5]
  CC50: > 100 µM
RXF 393
  %GI: 76.99%
  GP (growth percent): 23.01
PC-3; 5-dose 0.01-100 µM
  TGI: >100 µM
PC-3; [4]
  GI50: 5.11 µM
PC-3; [5]
  CC50: > 100 µM
PC-3
  %GI: 71.57%
  GP (growth percent): 28.43
Leukemia cell line panel
  Mean % GI: 88.02%
Leukemia cell line panel; 5-dose assay
  Selectivity Ratio (MID a:MID b): 1.89
Leukemia cell line panel; 5-dose assay, read-out: GI50 values, range over the leukemia panel
  GI50: 1.52 to 3.38 µM
Leukemia cell line panel; 5-dose assay, read-out: Sub Panel MID b (mean GI50 of panel)
  GI50: 2.59 µM
[1]
  Mean % GI: 60%
[1]; 5-dose assay
  Selectivity Ratio (MID a:MID b): 0.85
[1]; [6]
  GI50: 5.77 µM
[2]
  Mean % GI: 67.06%
[2]; 5-dose assay
  Selectivity Ratio (MID a:MID b): 1.28
[2]; [6]
  GI50: 3.83 µM
Melanoma cell line panel
  Mean % GI: 76.24%
Melanoma cell line panel; 5-dose assay
  Selectivity Ratio (MID a:MID b): 1.06
Melanoma cell line panel; [6]
  GI50: 4.59 µM
[3]
  Mean % GI: 60.11%
[3]; 5-dose assay
  Selectivity Ratio (MID a:MID b): 0.76
[3]; [6]
  GI50: 6.46 µM
EGFR
  IC50: 3.89 µM

## COc1ccc(/C=C/c2cc(/C=C/c3ccc(OC)c(O)c3)n(-c3cccc(Cl)c3)c(=S)n2)cc1O [3a]
K-562
  %GI: 40.77%
  GP (growth percent): 59.23
RPMI-8226
  %GI: 39.41%
  GP (growth percent): 60.59
SR; one dose 10 µM
  %GI: 51.28%
  GP (growth percent): 48.72
EKVX
  %GI: 14.19%
  GP (growth percent): 85.81
HOP-62
  %GI: 4.94%
  GP (growth percent): 95.06
NCI-H226
  %GI: 1.46%
  GP (growth percent): 98.54
NCI-H23
  %GI: 9.05%
  GP (growth percent): 90.95
NCI-H322M
  %GI: 8.07%
  GP (growth percent): 91.93
SW-620
  %GI: 10.52%
  GP (growth percent): 89.48
SF-295
  %GI: −9.94%
  GP (growth percent): 109.94
SF-539
  %GI: 6.89%
  GP (growth percent): 93.11
M14
  %GI: 5.96%
  GP (growth percent): 94.04
MDA-MB-435
  %GI: 18.68%
  GP (growth percent): 81.32
OVCAR-5
  %GI: −12.92%
  GP (growth percent): 112.92
OVCAR-8
  %GI: 28.57%
  GP (growth percent): 71.43
786–0
  %GI: 5.38%
  GP (growth percent): 94.62
CAKI-1
  %GI: 20.96%
  GP (growth percent): 79.04
RXF 393
  %GI: 7.37%
  GP (growth percent): 92.63
PC-3
  %GI: 10.79%
  GP (growth percent): 89.21
Leukemia cell line panel
  Mean % GI: 41.39%
[1]
  Mean % GI: 16.72%
[2]
  Mean % GI: 14.74%
Melanoma cell line panel
  Mean % GI: 17.21%
[3]
  Mean % GI: 7.04%
